Experimental data taken from PubChem BioAssay (NCI).
“And” between values parts separate entries of the source, which are not always exact repeats. Equal values may be shown once.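 Compound exposure: 48 hours, 5 concentrations, 96-well plates. GI50 marks 50% less growth. TGI denotes the concentration required for complete inhibition of growth.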

Legend:
Assay in all cases: growth of human tumour cells (NCI), 48 h
HCT-116 colon = system: HCT-116 colon
HL-60(TB) leukemia = system: HL-60(TB) leukemia
MALME-3M melanoma = system: MALME-3M melanoma
NCI-H226 lung = system: NCI-H226 lung
NCI-H23 lung = system: NCI-H23 lung
NCI-H460 lung = system: NCI-H460 lung
RPMI-8226 leukemia = system: RPMI-8226 leukemia
SK-MEL-5 melanoma = system: SK-MEL-5 melanoma
U251 CNS = system: U251 CNS
UACC-257 melanoma = system: UACC-257 melanoma

Row | SMILES | TGI (HCT-116 colon) [nM] | TGI (HL-60(TB) leukemia) | TGI (MALME-3M melanoma) | TGI (NCI-H226 lung) [nM] | TGI (NCI-H23 lung) | TGI (NCI-H460 lung) | TGI (RPMI-8226 leukemia) | TGI (SK-MEL-5 melanoma) [nM] | TGI (U251 CNS) | TGI (UACC-257 melanoma) | GI50 (HCT-116 colon) | GI50 (HL-60(TB) leukemia) [nM] | GI50 (MALME-3M melanoma) [nM] | GI50 (NCI-H226 lung) [nM] | GI50 (NCI-H23 lung) [nM] | GI50 (NCI-H460 lung) | GI50 (RPMI-8226 leukemia) [nM] | GI50 (SK-MEL-5 melanoma) [nM] | GI50 (U251 CNS) [nM] | GI50 (UACC-257 melanoma)
1 | COC(=O)C(C(=O)c1ccccc1)C(C(=O)C(=O)Nc1ccc(OC)cc1OC)C(=O)C(=O)c1ccc(C)cc1 (stereo unspecified) | > 100000 | > 100000 nM | > 100000 nM | > 100000 | > 100000 nM | > 100000 nM | > 100000 nM | > 100000 | > 100000 nM | > 100000 nM | – | – | – | – | – | – | – | – | – | –
2 | COc1cccc(CC(C)=C(c2ccc(OCCN(C)C)cc2)c2ccc(OCCN(C)C)cc2)c1 | 1500 | 1340 nM | 1050 nM | 10400 | 9240 nM | 7380 nM | 2240 nM | 9260 | 2420 nM | 8800 nM | 644 nM | 667 | 564 | 4800 | 4420 | 2830 nM | 842 | 4750 | 903 | 4060 nM
3 | CSC1=Nc2c(c(C)c(C)n2COC(CO)CO)C2=NC(=O)C(C)N12 (stereo unspecified) | > 100000 | > 100000 nM | > 100000 nM | > 100000 | > 100000 nM | > 100000 nM | > 100000 nM | > 100000 | > 100000 nM | > 100000 nM | > 100000 nM | – | > 100000 | > 100000 | > 100000 | > 100000 nM | > 100000 | > 100000 | > 100000 | > 100000 nM
4 | O=C1c2ccccc2C(=O)N1CCn1ccc(NC(c2ccccc2)(c2ccccc2)c2ccccc2)nc1=O | 32400 | 44200 nM | 43200 nM | 34100 | 60200 nM | 65500 nM | 51300 nM | 31200 | 32300 nM | 34700 nM | – | – | – | – | – | – | – | – | – | –
5 | COc1cccc(F)c1C(=O)c1cnc(NC2CCN(S(C)(=O)=O)CC2)nc1N | > 25000 | 13300 nM | 13700 nM | > 18900 | 21700 nM | > 25000 nM | 11300 nM | > 23300 | > 25000 nM | 15300 nM | 1340 nM | 1440 | 4350 | 3720 | 3150 | 862 nM | 1960 | 2060 | 2600 | 3970 nM
6 | CC1(C)N=C(N)N=C(N)N1c1ccc(CCCCc2ccc(Cl)cc2S(=O)(=O)F)c(Cl)c1 | > 38300 | 3260 nM | 14900 nM | 29200 | 18500 nM | 13500 nM | 13200 nM | 12600 | 15400 nM | 17000 nM | 346 nM | 107 | 1650 | 1230 | 537 | 117 nM | 562 | 552 | 291 | 808 nM
7 | COC(=O)C[C@](O)(CCCC(C)(C)O)C(=O)O[C@@H]1C(OC)=C[C@]23CCCN2CCc2cc4c(cc2[C@H]13)OCO4 | – | 237 nM and 75.8 nM | 268 nM and 63.5 nM | – | 548 nM and 86 nM | 270 nM and 88 nM | 419 nM and 840 nM | – | 564 nM and 72.8 nM | 839 nM and 88.1 nM | 134 nM and 15.3 nM | 24.9 | 19.6 | 11.2 | 24.6 | 16 nM and < 10 nM | 28.8 | 14.9 | 22.3 | 205 nM and 23.2 nM
8 | CC[As](CC)SC[C@H](C)C(=O)N1CCC[C@H]1C(=O)O | 162 | 75.7 nM | 207 nM | 614 | 616 nM | 2170 nM | 11.2 nM | 151 | 576 nM | 1480 nM | 41.9 nM | 23 | 44.1 | 201 | 222 | 418 nM | < 10 | 54 | 197 | 282 nM
9 | COc1cc(-c2oc(=O)ccc2C#Cc2ccccn2)cc(OC)c1OC | > 100000 | 6400 nM | > 100000 nM | > 100000 | > 29400 nM | > 54200 nM | 9590 nM | 11200 | > 86000 nM | > 61800 nM | 2750 nM | 2140 | 14900 | 7760 | 2400 | 2600 nM | 1800 | 2090 | 3510 | 4120 nM
10 | O=C(O)c1nnsc1-c1ccc(-c2snnc2C(=O)O)cc1 | > 100000 | > 100000 nM | > 100000 nM | > 100000 | > 100000 nM | > 100000 nM | 68600 nM | > 100000 | > 100000 nM | > 100000 nM | – | – | – | – | – | – | – | – | – | –
11 | Cc1cn2c(=O)c3ncn(C4OC(CO)C(O)C4O)c3n(C)c2n1 (stereo unspecified) | > 100000 | > 100000 nM | > 100000 nM | > 100000 | > 100000 nM | > 100000 nM | > 100000 nM | > 100000 | > 100000 nM | > 100000 nM | – | – | – | – | – | – | – | – | – | –
